# Assay results reported in patent US7901713B2, “Inhibition of COX-2 and/or 5-LOX activity by fractions isolated or derived from hops” (Metaproteomics, LLC, priority 2001, dated 2011).
# Assays:
# [1] = clinical trials; cited from earlier work
# Jurkat cells = assay: Antioxidant activity, DCFH-DA oxidative stress model (H2O2 + LPS) in Jurkat cells; type: cell-based; settings: Homo sapiens, 1000 μM H2O2 + 1 μg/mL LPS, highest concentration tested 50 μg/mL, parenthetic 95% confidence limits
# Experimental: Chemicals and reagents—Bacterial lipopolysaccharide (LPS; B E. coli 055:B5) was from Sigma (St. […] (Eugene, Oreg.); DCFH-DA was dissolved in dimethyl sulfoxide (DMSO) as a stock solution and kept frozen at −20° C. […] Positive control compounds included caffeic acid and Trolox obtained from Sigma (St. Louis, Mo.) and were of the highest purity commercially available. […] Unless otherwise noted, all standard reagents were obtained from Sigma and were the purest commercially available. […] Excess DCFH-DA was removed by centrifuging the cells for 10 minutes and resuspending them in the original growth medium. Cells were plated in microtiter wells at a concentration of approximately 10^6 cells per well. […] Fluorescence for each well was captured, digitized and stored on a computer using Cytofluor (Version 4.0). Measurements of fluorescence were made every ten minutes for 60 minutes. The change in DCF fluorescence is presented relative to the LPS-stimulated Jurkat cells alone; […] […] Antioxidant activity of the test materials—Oxidative stress was measured in cells using DCFH-DA in a microtiter plate assay as previously described [Wang, H. and Joseph, J. A. (1999) Quantifying cellular oxidative stress by dichlorofluorescein assay using microplate reader. […] Thus, the assay can be used to quantify overall oxidative stress in cells. […] Cm is determined from the x-intercept of the median-effect plot. […]
# RAW 264.7 cells = assay: Antioxidant activity, DCFH-DA oxidative stress model (H2O2 + LPS) in RAW 264.7 cells; type: cell-based, murine; settings: Mus musculus, RAW264.7; 1000 μM H2O2 + 1 μg/mL LPS; highest concentration tested 50 μg/mL; parenthetic 95% confidence limits
SMILES,reduction of primary and secondary incidence of myocardial infarction and other CVDs [1],IC50 (Jurkat cells) [µg/mL],IC50 (RAW 264.7 cells) [µg/mL]
"CC(=O)Oc1ccccc1C(=O)O [Aspirin, acetylsalicylic acid]",approximately 25%,–,–
"O=C(O)/C=C/c1ccc(O)c(O)c1 [Caffeic acid, caffeic acid]",–,3.2,3.3
Cc1c(C)c2c(c(C)c1O)CCC(C)(C(=O)O)O2 (stereo not shown) [Trolox],–,5.4,–
